Laboratory results published in PMC3136361 (Journal of medicinal chemistry, 2011).
“And” between values parts separate entries of the source, which are not always exact repeats. Equal entries are not always repeated.

Experiments:
[1] = Parallel artificial membrane permeability assay; settings: for passive permeability through artificial membrane (in words): PAMPA
[2] = test system: SREBP; experiment: SREBP-responsive; settings: luciferase reporter assay, CHO-K1 cells
[3] = Intrinsic clearance in mouse hepatocytes; type: in vitro ADME
[4] = test system: SREBP-responsive genes in DU145 cells; experiment: Real-time RT-PCR of SREBP-responsive genes in DU145 cells; type: cell-based, human
[5] = test system: ob/ob mice; settings: male ob/ob mice, oral in chow, 8 wk

CC(=O)CC(c1ccccc1)c1c(O)c2ccccc2oc1=O (stereo not drawn) [Warfarin, reference compound]
Reference PAMPA Papp ([1]; Warfarin 10 μM, control for membrane integrity, run alongside each compound): 5.34 10^−6 cm/sec and 5.58 10^−6 cm/sec

CCCc1cc(-c2ccc(-c3ccc(C)cc3)cc2)ccn1 [Compound 15]
activity in reporter assay (in words) [2]: large loss of activity

CCCc1cc(-c2nc(-c3ccc(NS(C)(=O)=O)cc3)cs2)ccn1 [Compound 24, N-(4-(2-(2-Propylpyridin-4-yl)thiazol-4-yl)phenyl)methanesulfonamide]
metabolic stability (in words) [3]: moderately stable
effect on transcription of three control genes unrelated to SREBP ([4]; RPL13A, B2M, GAPDH): no significant effect
downregulation of transcription of nine SREBP-responsive genes ([4]; real-time RT-PCR, all nine genes): at least 25%
passive permeability through artificial membrane (in words) [1]: high
less weight than control mice [5]: 8–9%

CCCc1cc(-c2nc(-c3ccccc3)cs2)ccn1 [Compound 5a]
decrease in potency relative to fatostatin [2]: fourfold

CCCc1cc(-c2nc(-c3ccc(NC(C)C)cc3)cs2)ccn1 [Compound 20, N-Isopropyl-4-(2-(2-propylpyridin-4-yl)thiazol-4-yl)aniline]
metabolic stability (in words) [3]: low metabolic stability
passive permeability through artificial membrane (in words) [1]: moderate

CCCc1cc(-c2nc(-c3ccc(C)cc3)cs2)ccn1 [Compound 1, fatostatin]
metabolic stability (in words) [3]: low metabolic stability

Cc1ccc(-c2csc(-c3ccccc3)n2)cc1 [Compound 12]
decrease in potency relative to fatostatin [2]: 3.3 fold
